Reference: patent publication US8895585B2, “Nicotinamide derivative or salt thereof” (FUJIFILM Corporation, priority 2010, dated 2014)

Assays:
[1] = biological target: T1, glutathione S-transferase (GST)-fused full-length human Syk protein (Homo sapiens, UniProt P43405); assay: Syk enzyme assay; assay type: biochemical; conditions: Syk enzyme assay, Test Example 1; read-out: IC50 of Syk-inhibitory activity
T1 construct: (GST)-fused full-length human Syk protein; GST (glutathione S-transferase); purchased Carna Biosciences
Method in brief: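 IC50 values come from a time-resolved FRET readout (615 and 665 nm) of substrate phosphorylation, measured after an EDTA stop and 1 h antibody binding. The kinase reaction ran 40 min at room temperature with 27 μM ATP and 0.4 μM biotin-peptide, following a 15 min compound preincubation with baculovirus-made GST-full-length human Syk.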

THP-1 cells = assay: TNFα generation assay; assay type: cell-based, human; conditions: Homo sapiens, THP-1, THP-1 cells; Table 22; read-out: IC50 in TNFα generation assay
Method in brief: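 Secreted TNFα in supernatant quantified by ELISA or AlphaLISA after 7 h culture on human IgG-coated wells (10 μg/ml coating). Cells were IFN-γ-differentiated THP-1 (10 ng/ml, 2 days), exposed to compound for 30 min at room temperature before plating.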

Row | SMILES | IC50 [1] [nM] | IC50 (THP-1 cells) [nM]
1 | NC(=O)c1cc(F)c(N[C@@H]2CCCC[C@@H]2N)nc1Nc1cncc(-c2cnn(Cc3ccccc3)c2)c1 (relative stereo) [Example 004-075, 6-(cis-2-aminocyclohexylamino)-2-((5-(1-benzyl-1H-pyrazol-4-yl)pyridin-3-yl)amino)-5-fluoronicotinamide] | < 10 | 130 to 200
2 | NC(=O)c1cc(F)c(N[C@@H]2CCCC[C@@H]2N)nc1Nc1cncc(-c2ccc3[nH]ccc3c2)c1 (relative stereo) [Example 004-076, 2-((5-(1H-indol-5-yl)pyridin-3-yl)amino)-6-(cis-2-aminocyclohexylamino)-5-fluoronicotinamide] | < 10 | 130 to 200
3 | NC(=O)c1cc(F)c(N[C@@H]2CCCC[C@@H]2N)nc1Nc1cncc(-c2ccsc2)c1 (relative stereo) [Example 004-077, 6-(cis-2-aminocyclohexylamino)-5-fluoro-2-((5-(thiophene-3-yl)pyridin-3-yl)amino)-nicotinamide] | < 10 | 65 to 130
4 | NC(=O)c1cc(F)c(N[C@@H]2CCCC[C@@H]2N)nc1Nc1cncc(-c2ccoc2)c1 (relative stereo) [Example 004-078, 6-(cis-2-aminocyclohexylamino)-5-fluoro-2-((5-(furan-3-yl)pyridin-3-yl)amino)-nicotinamide] | < 10 | 65 to 130
5 | NC(=O)c1cc(F)c(N[C@@H]2CCCC[C@@H]2N)nc1Nc1cc(F)cc2[nH]ccc12 (relative stereo) [Example 004-082, 6-(cis-2-aminocyclohexylamino)-5-fluoro-2-((6-fluoro-1H-indol-4-yl)amino)nicotinamide] | < 10 | 130 to 200
6 | NC(=O)c1cc(F)c(N[C@@H]2CCCC[C@@H]2N)nc1Nc1cc([N+](=O)[O-])c2[nH]ccc2c1 (relative stereo) [Example 004-089, 6-(cis-2-aminocyclohexylamino)-5-fluoro-2-((7-nitro-1H-indol-5-yl)amino)nicotinamide] | < 10 | 65 to 130

Next, values leading:

Row | IC50 [1] [nM] | IC50 (THP-1 cells) [nM] | SMILES
7 | < 10 | 65 to 130 | COCCn1ncc2cc(Nc3nc(N[C@@H]4CCCC[C@@H]4N)c(F)cc3C(N)=O)ccc21 (relative stereo) [Example 004-091, 6-(cis-2-aminocyclohexylamino)-5-fluoro-2-((1-(2-methoxyethyl)-1H-indazol-5-yl)amino)-nicotinamide]
8 | < 10 | 65 to 130 | CCOCCOCCn1ncc2cc(Nc3nc(N[C@@H]4CCCC[C@@H]4N)c(F)cc3C(N)=O)ccc21 (relative stereo) [Example 004-092, 6-(cis-2-aminocyclohexylamino)-2-((1-(2-(2-ethoxyethoxy)ethyl)-1H-indazol-5-yl)amino)-5-fluoronicotinamide]
9 | < 10 | 130 to 200 | NC(=O)c1cc(F)c(N[C@@H]2CCCC[C@@H]2N)nc1Nc1ccc2nn(CC3CC3)cc2c1 (relative stereo) [Example 004-093, 6-(cis-2-aminocyclohexylamino)-2-((2-(cyclopropylmethyl)-2H-indazol-5-yl)amino)-5-fluoronicotinamide]
10 | < 10 | 130 to 200 | COCCn1cc2cc(Nc3nc(N[C@@H]4CCCC[C@@H]4N)c(F)cc3C(N)=O)ccc2n1 (relative stereo) [Example 004-094, 6-(cis-2-aminocyclohexylamino)-5-fluoro-2-((2-(2-methoxyethyl)-2H-indazol-5-yl)amino)-nicotinamide]
11 | < 10 | 130 to 200 | CCOCCOCCn1cc2cc(Nc3nc(N[C@@H]4CCCC[C@@H]4N)c(F)cc3C(N)=O)ccc2n1 (relative stereo) [Example 004-095, 6-(cis-2-aminocyclohexylamino)-2-((2-(2-(2-ethoxyethoxy)ethyl)-2H-indazol-5-yl)amino)-5-fluoronicotinamide]
12 | 10 to 50 | 65 to 130 | NC(=O)c1cc(F)c(N[C@@H]2CCCC[C@@H]2N)nc1Nc1cccnc1 (relative stereo) [Example 004-096, 6-(cis-2-aminocyclohexylamino)-5-fluoro-2-((pyridin-3-yl)amino)nicotinamide]
